Consider 7 compounds from PubChem BioAssay (NCI).

Where “and” joins values, the source holds several entries; their conditions need not be identical. Identical values can stand only once.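 Growth conditions: 96-well plates. Treatment: test compound, 48 hours, 5 concentrations. Analysis: linear interpolation between bracketing concentrations; unreached endpoints set to highest concentration. GI50: concentration for 50% inhibition of growth. The concentration for full growth arrest is given as TGI.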

What all share (assay): NCI anticancer screen, dose series, 48 h
For test [1], the system named is HOP-62 NSCLC.
For test [2], the system named is HL-60(TB) leukemia.
In test [3] the test system is SF-295 CNS.
For test [4], the system named is SNB-19 CNS.
Test [5] has as its system MCF7 breast.
Test [6] relates to SF-268 CNS.
The test system of test [7] is SK-MEL-5 melanoma.
For test [8], the system named is OVCAR-4 ovarian.
In test [9] the test system is HCT-116 colon.
Test [10] has as its system HOP-92 NSCLC.

Take `CC(C)(C)OC(=O)NCCNC1=CC(=O)c2nc3ccccc3c3ccnc1c23`: the GI50 is 24.4 µM in test [1]; 12.2 µM in [2]; 18.2 µM in test [3]; 22.7 µM in test [4]; 7.42 µM in test [5]; 18.7 µM in test [6]. Further, the GI50 in test [7] was 11.1 µM; in test [8], 24.3 µM; in test [9], 22.3 µM; in test [10] it was 17.9 µM. The TGI in test [1] was more than 100 µM; in test [2] it was more than 100 µM; in test [3], 40 µM; in [4], 83.7 µM; in test [5] it was 24.4 µM; in test [6] it was 77.1 µM. Moreover, the TGI is 23.1 µM in test [7], 67.6 µM in test [8], more than 100 µM in test [9] and 42.5 µM in test [10].
In the case of `O=[N+]([O-])c1ccc(Nc2ccccc2-c2ccccc2)c2nonc12`, the GI50 in test [1] was 17.4 µM; in test [2], 17.8 µM; in test [3], 11.7 µM; in test [4] it was 14.5 µM; in test [5] it was 15.3 µM; in test [6], 14.9 µM. Besides, the GI50 is 6 µM in test [7], 9.5 µM in test [8], 13.9 µM in test [9] and 3.15 µM in [10]. For the same compound, the TGI in [1] was 42.7 µM; in test [2], 51.1 µM; in test [3], 29.7 µM; in test [4], 32.3 µM; in [5], more than 72.4 µM; in [6], 36.8 µM. In addition, the TGI is 18.8 µM in test [7], more than 100 µM in test [8], 31.6 µM in [9] and 23.4 µM in [10].
As for `COc1cccc(C2CC(c3cc(OC)c(OC)c(OC)c3)=NN2)c1` (stereo not given), the GI50 in [1] was 8.99 µM; in [2] it was 4.08 µM; in test [3] it was 9.61 µM; in test [4], 16.8 µM; in [5], 3.85 µM; in test [6] it was 13.6 µM. Also, the GI50 in test [7] was 11.8 µM; in test [8], 23.5 µM; in test [9], 5.31 µM; in test [10], 11.9 µM. The TGI in test [1] was 71.4 µM; in [2] it was 31.7 µM; in test [3] it was 38.3 µM; in test [4] it was more than 100 µM; in [5] it was 26.1 µM; in [6], 81.2 µM. Moreover, the TGI was 24 µM in [7], more than 100 µM in [8], 19 µM in test [9] and 39.2 µM in test [10].
As for `C=CC(=O)Nc1ccc(Nc2nccc(-c3ccc(N4CCCC4)c(C#N)c3)n2)cc1`, the GI50 in [1] was 10.9 µM; in [2], 4.88 µM; in test [3], 9.44 µM; in test [4], more than 25 µM; in test [5], 9.55 µM; in test [6], 15.8 µM. Moreover, the GI50 in test [7] is 17.9 µM; in [8], 20.1 µM; in test [9], 6.03 µM; in [10], more than 25 µM. In addition, the TGI in test [1], in [2], in test [3], in test [4], in test [5] and in test [6] was more than 25 µM each time. For the same compound, the TGI in test [7], in test [8], in test [9] and in test [10] was more than 25 µM in each case.
Take `CC/C(Cc1ccccc1)=C(\c1ccc(OCCN2CCCCCC2)cc1)c1ccc(OC(=O)NCc2ccccc2)cc1`: the GI50 is 7.02 µM in test [1]; 1.18 µM in test [2]; 6.5 µM in test [3]; 3.7 µM in [4]; 0.25 µM in test [5]; 4.23 µM in [6]. The GI50 in [7] was 1 µM; in test [8], 1.61 µM; in test [9] it was 0.895 µM; in [10], 3 µM. The TGI stood at 14.5 µM in [1]; 3.44 µM in test [2]; 13.2 µM in [3]; 10.4 µM in test [4]; 5.33 µM in test [5]; 11.3 µM in test [6]. Moreover, the TGI in test [7] came to 2 µM; in [8] it was 6.03 µM; in test [9] it was 1.63 µM; in [10], 9.93 µM.
Turning to `CO[C@H](C(=O)[C@@H](O)[C@@H](C)O)[C@@H]1Cc2cc3cc(O[C@H]4C[C@@H](O[C@H]5C[C@@H](O)[C@H](O)C(C)O5)[C@H](O)C(C)O4)c(C)c(O)c3c(O)c2C(=O)[C@H]1O[C@H]1C[C@@H](O[C@H]2C[C@@H](O[C@H]3C[C@@H](OC)[C@H](O)C(C)O3)[C@@H](O)C(C)O2)C(O)(O)C(C)O1` (stereo not given in full), the GI50 in [1] is 0.0513 µM; in test [2] it was 2.94 µM; in test [3], 0.0601 µM; in [4], 0.0971 µM; in [5], 0.0108 µM; in test [6] it was 0.128 µM. Also, the GI50 was 0.0208 µM in test [7], 0.404 µM in test [8], 0.035 µM in test [9] and 0.103 µM in test [10]. The TGI was more than 25 µM in test [1]; more than 25 µM in [2]; more than 25 µM in test [3]; more than 25 µM in test [4]; more than 9.61 µM in [5]; more than 25 µM in test [6]. The TGI is 0.467 µM in [7], more than 11.7 µM in test [8], more than 25 µM in test [9] and more than 6.49 µM in test [10].
With `CN1CCN(c2ccc(C(=O)Nc3n[nH]c4ccc(Cc5cc(F)cc(F)c5)cc34)c(NC3CCOCC3)c2)CC1`, the GI50 is 2.66 µM in test [1]; 1.83 µM and 1.66 µM in [2]; 3.94 µM and 1.45 µM in [3]; 4.24 µM and 1.79 µM in test [4]; 0.983 µM and 0.485 µM in [5]; 2.25 µM and 1.45 µM in test [6]. Besides, the GI50 was 1.62 µM and 1.56 µM in test [7]; 6.95 µM and 1.45 µM in test [8]; 1.53 µM and 1.36 µM in test [9]; 0.446 µM and 1.04 µM in [10]. Further, the TGI in [1] is more than 10 µM; in [2], 4.19 µM and 3.38 µM; in [3], > 10 µM and 3.11 µM; in test [4], > 10 µM and 3.53 µM; in [5] it was 5.73 µM and 1.93 µM; in test [6] it was > 10 µM and 2.87 µM. The TGI in test [7] is 3.01 µM and 2.98 µM; in test [8], > 10 µM and 4.09 µM; in test [9] it was 3.27 µM and 2.73 µM; in test [10] it was 3.03 µM and 2.4 µM.
